Results reported in patent US9273040B2 (Merck Sharp & Dohme Corp., priority 2011, dated 2016).
Like-named read-outs stand apart in the source and are kept apart here.

Tests used:
[1] = molecular target: T1, human Nav1.7 channels stably expressed in HEK 293 cells (Homo sapiens, UniProt Q15858); test: PatchXpress 7000 automated patch-clamp, sodium current; assay type: cell-based; conditions: 22° C.
T1 construct: expressed in transfected cells
Outline: (§1)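 IC50 values came from Hill-equation fits of rundown-corrected inhibition. PatchXpress recordings at 22° C held cells 20 mV negative to V0.5 inact and applied 10 Hz trains of 30 ms steps to −20 mV (Nav1.7) or an 8000 ms prepulse 7 mV positive to V0.5 inact. […]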

[2] = molecular target: T2, human Nav1.5 channels stably expressed in HEK 293 cells (Homo sapiens, UniProt Q14524); test: as above; assay type: cell-based; conditions: selectivity over Nav1.5
T2 construct: expressed in transfected cells
Outline: as §1

[3] = read-out: potency for the Nav 1.7 sodium ion channel (as measured by PatchXpress)

T1 sequence (Q15858 whole entry): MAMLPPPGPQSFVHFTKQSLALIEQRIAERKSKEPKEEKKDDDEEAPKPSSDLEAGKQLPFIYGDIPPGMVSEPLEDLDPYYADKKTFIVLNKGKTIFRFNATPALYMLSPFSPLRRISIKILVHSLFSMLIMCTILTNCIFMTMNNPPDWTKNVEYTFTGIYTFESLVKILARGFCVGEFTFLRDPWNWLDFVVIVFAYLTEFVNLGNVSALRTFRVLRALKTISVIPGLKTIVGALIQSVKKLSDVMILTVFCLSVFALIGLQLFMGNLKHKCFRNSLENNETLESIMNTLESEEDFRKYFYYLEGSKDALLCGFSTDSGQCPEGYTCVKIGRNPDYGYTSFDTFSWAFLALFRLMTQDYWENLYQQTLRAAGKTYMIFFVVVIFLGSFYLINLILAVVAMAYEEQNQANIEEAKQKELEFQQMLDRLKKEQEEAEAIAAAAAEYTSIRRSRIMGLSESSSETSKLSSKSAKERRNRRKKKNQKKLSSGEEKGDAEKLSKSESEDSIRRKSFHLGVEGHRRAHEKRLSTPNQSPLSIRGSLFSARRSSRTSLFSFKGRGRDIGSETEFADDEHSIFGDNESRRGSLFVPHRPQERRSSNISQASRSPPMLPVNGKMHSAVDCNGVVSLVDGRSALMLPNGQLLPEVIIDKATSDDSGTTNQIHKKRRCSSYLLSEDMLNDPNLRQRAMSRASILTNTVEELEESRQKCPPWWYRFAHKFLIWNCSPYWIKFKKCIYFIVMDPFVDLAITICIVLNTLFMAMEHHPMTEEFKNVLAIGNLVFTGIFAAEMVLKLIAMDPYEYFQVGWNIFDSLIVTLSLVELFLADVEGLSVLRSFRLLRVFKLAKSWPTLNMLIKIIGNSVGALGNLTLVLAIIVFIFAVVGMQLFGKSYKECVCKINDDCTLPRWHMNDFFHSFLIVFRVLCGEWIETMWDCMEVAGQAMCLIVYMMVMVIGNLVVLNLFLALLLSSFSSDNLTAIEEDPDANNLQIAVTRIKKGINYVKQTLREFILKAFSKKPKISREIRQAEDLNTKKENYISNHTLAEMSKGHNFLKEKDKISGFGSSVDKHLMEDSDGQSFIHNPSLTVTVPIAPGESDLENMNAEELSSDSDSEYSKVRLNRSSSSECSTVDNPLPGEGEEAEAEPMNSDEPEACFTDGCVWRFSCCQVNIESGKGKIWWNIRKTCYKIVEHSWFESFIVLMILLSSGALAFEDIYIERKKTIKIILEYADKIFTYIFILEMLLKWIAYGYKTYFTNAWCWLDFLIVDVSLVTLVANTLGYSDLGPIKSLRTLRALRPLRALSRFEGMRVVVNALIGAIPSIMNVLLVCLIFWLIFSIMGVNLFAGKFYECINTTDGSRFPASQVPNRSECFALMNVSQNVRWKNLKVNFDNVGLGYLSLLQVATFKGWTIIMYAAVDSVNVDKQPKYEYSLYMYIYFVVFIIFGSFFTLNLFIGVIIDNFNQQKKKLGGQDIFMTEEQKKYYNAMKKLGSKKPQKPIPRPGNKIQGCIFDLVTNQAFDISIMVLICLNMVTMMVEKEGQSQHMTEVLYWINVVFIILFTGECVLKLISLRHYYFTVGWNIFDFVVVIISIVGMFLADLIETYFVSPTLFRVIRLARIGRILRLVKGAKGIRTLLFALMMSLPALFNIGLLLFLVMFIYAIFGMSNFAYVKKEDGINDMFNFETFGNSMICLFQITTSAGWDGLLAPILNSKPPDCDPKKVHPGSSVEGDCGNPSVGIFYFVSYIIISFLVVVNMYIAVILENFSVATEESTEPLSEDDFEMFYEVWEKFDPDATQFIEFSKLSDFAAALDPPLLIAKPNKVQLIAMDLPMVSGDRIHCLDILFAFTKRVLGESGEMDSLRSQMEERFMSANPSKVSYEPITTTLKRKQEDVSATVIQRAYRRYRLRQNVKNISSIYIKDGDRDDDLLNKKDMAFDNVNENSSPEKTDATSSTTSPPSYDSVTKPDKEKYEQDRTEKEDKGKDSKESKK
T2 sequence (Q14524 whole entry): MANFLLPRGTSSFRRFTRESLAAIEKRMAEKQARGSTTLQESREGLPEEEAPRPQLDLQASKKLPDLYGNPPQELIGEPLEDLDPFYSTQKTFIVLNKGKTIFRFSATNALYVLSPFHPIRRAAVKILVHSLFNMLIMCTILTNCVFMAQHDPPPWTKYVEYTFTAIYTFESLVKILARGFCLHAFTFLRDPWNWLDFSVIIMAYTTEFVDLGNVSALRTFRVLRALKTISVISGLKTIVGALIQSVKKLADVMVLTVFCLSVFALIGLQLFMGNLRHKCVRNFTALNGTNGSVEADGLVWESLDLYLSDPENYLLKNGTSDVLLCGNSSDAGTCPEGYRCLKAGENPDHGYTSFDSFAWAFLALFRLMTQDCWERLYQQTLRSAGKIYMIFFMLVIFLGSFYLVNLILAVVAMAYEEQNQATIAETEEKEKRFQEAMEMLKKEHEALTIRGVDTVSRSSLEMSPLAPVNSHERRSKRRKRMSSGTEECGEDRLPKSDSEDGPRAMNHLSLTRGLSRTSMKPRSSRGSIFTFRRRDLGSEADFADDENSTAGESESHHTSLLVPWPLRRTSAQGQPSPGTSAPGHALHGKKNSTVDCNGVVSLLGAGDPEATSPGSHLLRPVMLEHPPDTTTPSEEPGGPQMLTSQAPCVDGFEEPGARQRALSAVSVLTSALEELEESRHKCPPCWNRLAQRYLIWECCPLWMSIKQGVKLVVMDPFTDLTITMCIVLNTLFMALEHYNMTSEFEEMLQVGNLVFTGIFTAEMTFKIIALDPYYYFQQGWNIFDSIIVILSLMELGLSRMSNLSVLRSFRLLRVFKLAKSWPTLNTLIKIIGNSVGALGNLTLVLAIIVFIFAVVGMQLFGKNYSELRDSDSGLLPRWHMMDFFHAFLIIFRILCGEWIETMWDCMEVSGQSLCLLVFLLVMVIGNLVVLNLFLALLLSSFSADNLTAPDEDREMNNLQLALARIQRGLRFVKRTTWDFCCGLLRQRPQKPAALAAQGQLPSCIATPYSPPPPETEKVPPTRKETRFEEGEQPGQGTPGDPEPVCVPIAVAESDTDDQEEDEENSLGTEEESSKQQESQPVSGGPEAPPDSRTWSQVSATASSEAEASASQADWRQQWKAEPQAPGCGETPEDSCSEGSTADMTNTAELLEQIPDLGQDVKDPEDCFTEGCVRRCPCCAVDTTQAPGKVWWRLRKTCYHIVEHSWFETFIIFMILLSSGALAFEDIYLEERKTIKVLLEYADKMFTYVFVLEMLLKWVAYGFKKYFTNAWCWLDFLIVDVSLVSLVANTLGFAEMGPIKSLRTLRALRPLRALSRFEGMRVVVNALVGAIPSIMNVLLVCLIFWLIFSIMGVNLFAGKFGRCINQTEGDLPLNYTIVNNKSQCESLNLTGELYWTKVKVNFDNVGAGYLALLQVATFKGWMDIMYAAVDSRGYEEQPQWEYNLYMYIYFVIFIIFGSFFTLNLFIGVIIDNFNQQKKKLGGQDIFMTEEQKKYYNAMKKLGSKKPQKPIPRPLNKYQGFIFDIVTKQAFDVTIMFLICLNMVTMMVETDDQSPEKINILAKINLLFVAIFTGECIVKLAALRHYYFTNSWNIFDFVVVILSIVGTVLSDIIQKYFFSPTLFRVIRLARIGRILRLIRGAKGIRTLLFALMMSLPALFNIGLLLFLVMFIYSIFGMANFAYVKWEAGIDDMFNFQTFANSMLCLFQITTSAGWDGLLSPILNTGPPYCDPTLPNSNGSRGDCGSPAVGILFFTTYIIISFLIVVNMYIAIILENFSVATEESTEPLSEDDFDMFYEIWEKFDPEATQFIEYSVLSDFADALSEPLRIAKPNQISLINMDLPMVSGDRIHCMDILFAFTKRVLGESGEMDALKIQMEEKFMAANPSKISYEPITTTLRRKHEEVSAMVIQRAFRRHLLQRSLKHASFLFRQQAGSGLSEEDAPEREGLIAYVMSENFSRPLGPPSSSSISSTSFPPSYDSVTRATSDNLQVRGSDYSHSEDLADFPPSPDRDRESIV

SMILES | IC50 [1, 3] [nM] | ratio of Nav 1.5:Nav 1.7 potency, determined by PatchXpress measurement [2] | IC50 ([1]; potency for the Nav 1.7 sodium ion channel (as measured by PatchXpress)) [nM]
Cl.O=c1oc2cc(S(=O)(=O)Nc3ncns3)c(F)cc2n1Cc1cccc2c1CC(N1CC(F)(F)C1)CC2 (centres unmarked) [Compound 19-6, 3-((7-(3,3-difluoroazetidin-1-yl)-5,6,7,8-tetrahydronaphthalen-1-yl)methyl)-5-fluoro-2-oxo-N-(1,2,4-thiadiazol-5-yl)-2,3-dihydrobenzo[d]oxazole-6-sulfonamide hydrochloride] | 118 | 103 | –
O=c1oc2cc(S(=O)(=O)Nc3ncns3)c(F)cc2n1Cc1cccc2c1CC(O)CC2 (centres unmarked) [Compound 21-1, 5-fluoro-3-((7-hydroxy-5,6,7,8-tetrahydronaphthalen-1-yl)methyl)-2-oxo-N-(1,2,4-thiadiazol-5-yl)-2,3-dihydrobenzo[d]oxazole-6-sulfonamide] | 121 | 113 | –
CC(=O)NC1CCc2cccc(Cn3c(=O)oc4cc(S(=O)(=O)Nc5ncns5)c(F)cc43)c2C1 (centres unmarked) [Compound 22-1, N-(8-((6-(N-(1,2,4-thiadiazol-5-yl)sulfamoyl)-5-fluoro-2-oxobenzo[d]oxazol-3(2H)-yl)methyl)-1,2,3,4-tetrahydronaphthalen-2-yl)acetamide] | 175 | 172 | –
Cl.O=c1oc2cc(S(=O)(=O)Nc3ncns3)c(F)cc2n1Cc1cccc2c1CNCC2F (centres unmarked) [Compound 24-9, 5-fluoro-3-((4-fluoro-1,2,3,4-tetrahydroisoquinolin-8-yl)methyl)-2-oxo-N-(1,2,4-thiadiazol-5-yl)-2,3-dihydrobenzo[d]oxazole-6-sulfonamide hydrochloride] | 183 | 704 | –
Nc1cc2c(Cn3c(=O)oc4cc(S(=O)(=O)Nc5ncns5)c(F)cc43)cccc2cn1 [Compound 26-5, 3-((3-Aminoisoquinolin-5-yl)methyl)-5-fluoro-2-oxo-N-(1,2,4-thiadiazol-5-yl)-2,3-dihydrobenzo[d]oxazole-6-sulfonamide] | 67 | 450 | –
Nc1cc2cccc(Cn3c(=O)oc4cc(S(=O)(=O)Nc5ncns5)c(F)cc43)c2cn1 [Compound 27-5, 3-((3-aminoisoquinolin-8-yl)methyl)-5-fluoro-2-oxo-N-(1,2,4-thiadiazol-5-yl)-2,3-dihydrobenzo[d]oxazole-6-sulfonamide] | 67 | 450 | –
O=c1oc2cc(S(=O)(=O)Nc3ncns3)ccc2n1Cc1cccc2cc(Cl)ncc12 [Compound 27-7, 3-[(3-chloroisoquinolin-8-yl)methyl]-2-oxo-N-1,2,4-thiadiazol-5-yl-2,3-dihydro-1,3-benzoxazole] | 182 | 144 | –
C[C@H](c1cccc(-c2ccn(C)n2)c1)n1c(=O)oc2cc(S(=O)(=O)Nc3ncns3)c(F)cc21 [Compound 28-3, (R)-5-Fluoro-3-(1-(3-(1-methyl-1H-pyrazol-3-yl)phenyl)ethyl)-2-oxo-N-(1,2,4-thiadiazol-5-yl)-2,3-dihydrobenzo[d]oxazole-6-sulfonamide] | 306 | 86 | –
C[C@H](c1cccc(-c2ccc(O)nc2)c1)n1c(=O)oc2cc(S(=O)(=O)Nc3ncns3)c(F)cc21 [Compound 28-4, 5-fluoro-3-{(1R)-1-[3-(6-hydroxypyridin-3-yl)phenyl]ethyl}-2-oxo-N-1,2,4-thiadiazol-5-yl-2,3-dihydro-1,3-benzoxazole-6-sulfonamide] | 107 | 181 | –
Cc1n[nH]cc1-c1cccc([C@@H](C)n2c(=O)oc3cc(S(=O)(=O)Nc4ncns4)c(F)cc32)c1 [Compound 28-5, 5-fluoro-3-{(1R)-1-[3-(3-methyl-1H-pyrazol-4-yl)phenyl]ethyl}-2-oxo-N-1,2,4-thiadiazol-5-yl-2,3-dihydro-1,3-benzoxazole-6-sulfonamide] | 48 | 64 | –
CC(c1cccc(-c2ccnc(CO)c2)c1)n1c(=O)oc2cc(S(=O)(=O)Nc3ncns3)c(F)cc21 (centres unmarked) [Compound 29-3, 5-fluoro-3-(1-{3-[2-(hydroxymethyl)pyridin-4-yl]phenyl}ethyl)-2-oxo-N-1,2,4-thiadiazol-5-yl-2,3-dihydro-1,3-benzoxazole-6-sulfonamide] | 216 | 61 | –
CC(c1cccc(-c2cccnc2)c1)n1c(=O)oc2cc(S(=O)(=O)Nc3ncns3)c(F)cc21 (centres unmarked) [Compound 29-4, 5-fluoro-2-oxo-3-[1-(3-pyridin-3-ylphenyl)ethyl]-N-1,2,4-thiadiazol-5-yl-2,3-dihydro-1,3-benzoxazole-6-sulfonamide] | 162 | 57 | –
C[C@H](c1cccc(C#CCN)c1)n1c(=O)oc2cc(S(=O)(=O)Nc3ncns3)c(F)cc21 [Compound 30-3, (R)-3-(1-(3-(3-aminoprop-1-yn-1-yl)phenyl)ethyl)-5-fluoro-2-oxo-N-(1,2,4-thiadiazol-5-yl)-2,3-dihydrobenzo[d]oxazole-6-sulfonamide] | 28 | 289 | –
C[C@H](c1cccc(C#CC2(N)CCCCC2)c1)n1c(=O)oc2cc(S(=O)(=O)Nc3ncns3)c(F)cc21 [Compound 30-4] | 10 | 309 | –
C[C@H](c1ccccc1C1CNC1)n1c(=O)oc2cc(S(=O)(=O)Nc3ncns3)c(F)cc21 [Compound 31-1, (R)-3-(1-(2-(azetidin-3-yl)phenyl)ethyl)-5-fluoro-2-oxo-N-(1,2,4-thiadiazol-5-yl)-2,3-dihydrobenzo[d]oxazole-6-sulfonamide] | 15 | 603 | –
C[C@H](c1ccccc1C1(O)CNC1)n1c(=O)oc2cc(S(=O)(=O)Nc3ncns3)c(F)cc21 [Compound 32-4, (R)-5-fluoro-3-(1-(2-(3-hydroxyazetidin-3-yl)phenyl)ethyl)-2-oxo-N-(1,2,4-thiadiazol-5-yl)-2,3-dihydrobenzo[d]oxazole-6-sulfonamide] | 34 | 110 | –
C[C@H](c1ccccc1C1(F)CNC1)n1c(=O)oc2cc(S(=O)(=O)Nc3ncns3)c(F)cc21 [Compound 32-6, (R)-5-Fluoro-3-(1-(2-(3-fluoroazetidin-3-yl)phenyl)ethyl)-2-oxo-N-(1,2,4-thiadiazol-5-yl)-2,3-dihydrobenzo[d]oxazole-6-sulfonamide] | 18 | 1333 | –
C[C@H](c1ccccc1CCCN)n1c(=O)oc2cc(S(=O)(=O)Nc3ncns3)c(F)cc21 [Compound 33-7, (R)-3-(1-(2-(3-Aminopropyl)phenyl)ethyl)-5-fluoro-2-oxo-N-(1,2,4-thiadiazol-5-yl)-2,3-dihydrobenzo[d]oxazole-6-sulfonamide] | 51 | 166 | –
C[C@@H](c1ccccc1CCCN)n1c(=O)oc2cc(S(=O)(=O)Nc3ncns3)c(F)cc21 [Compound 33-8] | 168 | 179 | –
C[C@H](c1ccccc1C1=CCNCC1)n1c(=O)oc2cc(S(=O)(=O)Nc3ncns3)c(Cl)cc21.Cl [Compound 34-6, (R)-5-chloro-2-oxo-3-(1-(2-(1,2,3,6-tetrahydropyridin-4-yl)phenyl)ethyl)-N-(1,2,4-thiadiazol-5-yl)-2,3-dihydrobenzo[d]oxazole-6-sulfonamide hydrochloride] | – | 1200 | 25
C[C@H](c1ccccc1C#CCN)n1c(=O)oc2cc(S(=O)(=O)Nc3ncns3)c(Cl)cc21 [Compound 34-8, 3-{(1R)-1-[2-(3-aminoprop-1-yn-1-yl)phenyl]ethyl}-5-chloro-2-oxo-N-1,2,4-thiadiazol-5-yl-2,3-dihydro-1,3-benzoxazole-6-sulfonamide] | 40 | 40 | –
C[C@H](c1cccc2c1CNCC2)n1c(=O)oc2cc(S(=O)(=O)Nc3ncns3)c(Br)cc21 [Compound 35-5, (R)-5-bromo-2-oxo-3-(1-(1,2,3,4-tetrahydroisoquinolin-8-yl)ethyl)-N-(1,2,4-thiadiazol-5-yl)-2,3-dihydrobenzo[d]oxazole-6-sulfonamide] | 16 | 932 | –
C[C@H](c1ccccc1C#CCN)n1c(=O)oc2cc(S(=O)(=O)Nc3ncns3)c(Br)cc21 [Compound 35-6, 3-{(1R)-1-[2-(3-aminoprop-1-yn-1-yl)phenyl]ethyl}-5-bromo-2-oxo-N-1,2,4-thiadiazol-5-yl-2,3-dihydro-1,3-benzoxazole-6-sulfonamide] | 27 | 334 | –
C[C@H](c1ccccc1C1=CCN(S(C)(=O)=O)CC1)n1c(=O)oc2cc(S(=O)(=O)Nc3ncns3)c(Cl)cc21 [Compound 36-1, (R)-5-chloro-3-(1-(2-(1-(methylsulfonyl)-1,2,3,6-tetrahydropyridin-4-yl)phenyl)ethyl)-2-oxo-N-(1,2,4-thiadiazol-5-yl)-2,3-dihydrobenzo[d]oxazole-6-sulfonamide] | 527 | 54 | –
C[C@H](c1ccccc1C1=CCN(S(C)(=O)=O)CC1)n1c(=O)oc2cc(S(=O)(=O)Nc3ncns3)c(F)cc21 [Compound 36-3, 5-fluoro-3-[(1R)-1-{2-[1-(methylsulfonyl)-1,2,3,6-tetrahydropyridin-4-yl]phenyl}ethyl]-2-oxo-N-1,2,4-thiadiazol-5-yl-2,3-dihydro-1,3-benzoxazole-6-sulfonamide] | 255 | 88 | –
